The record followed here is patent US6680326B2, “Polycyclic compounds” (Hoffmann-La Roche Inc., priority 2001, dated 2004).

≈ marks a conversion by molar mass, not a printed value.

The test system of the experiment is HCT116 cell line (colorectal cancer). Nature of the experiment: Anti-proliferative activity assay (WST-8, 4 days). Format: cell-based. Particulars: Homo sapiens, HCT-116, 96 h; in vitro growth of HCT116 cells, 4 days incubation, WST-8 readout. The protocol:
A single suspension of tumor cells was inoculated to the serially diluted 96-well microtestplate. Then the testplate was incubated in the 5% CO2 ambience at 37° C. for 4 days (2-3×10^3 cells/well). The degree of cell growth in a monolayer was measured by using WST-8 (Dojindo, Japan). IC50 values of the polycyclic compounds concerned against tumor cells were calculated as the concentration of drug yielding 50% OD of the control growth. The IC50 value measures the drug concentration for 50% inhibition of the growth of tumor cells in vitro as compared to the control.
The anti-tumor activity of polycyclic compounds of the formula [I] against in vitro growth of HCT116 cell line (colorectal cancer) is summarized in Table 1.
Turning to `CN(C)CCNc1nc2cc(O)ccc2c2c1C(=O)c1cnccc1-2` [Example 41, 6-(2-dimethylamino-ethylamino)-3-hydroxy-5,9-diaza-benzo[c]fluoren-7-one], the IC50 was 0.35 ng/mL (≈ 0.00105 µM). In turn, `Cc1cc2c(cn1)-c1c(c(NCCN(C)C)nc3cc(O)ccc13)C2=O` [Example 47, 6-(2-dimethylamino-ethylamino)-3-hydroxy-9-methyl-5,10-diaza-benzo[c]fluoren-7-one] returned an IC50 of 3.9 ng/mL (≈ 0.0112 µM). `CN(C)CCNc1nc2cc(O)ccc2c2c1C(=O)c1ccccc1-2` [Reference compound, 6-(2-dimethylamino-ethylamino)-3-hydroxy-7H-indeno[2,1-c]quinolin-7-one, reference compound] had an IC50 of 12 ng/mL (≈ 0.036 µM).

The molecule `Cc1c(O)ccc2c3c(c(NCCN(C)C)nc12)C(=O)c1ccncc1-3` [Example 45, 6-(2-dimethylamino-ethylamino)-3-hydroxy-4-methyl-5,10-diaza-benzo[c]fluoren-7-one] yielded an IC50 of 3.9 ng/mL (≈ 0.0112 µM). Molecule `Cc1c(O)ccc2c3c(c(NCCN(C)C)nc12)C(=O)c1cnccc1-3` [Example 46, 6-(2-dimethylamino-ethylamino)-3-hydroxy-4-methyl-5,9-diaza-benzo[c]fluoren-7-one] came in with an IC50 of 2.2 ng/mL (≈ 0.00631 µM).
